Results reported in patent publication US7642229B2, “Pharmaceutical composition and a product which includes a substituted acryloyl distamycin derivative, an antimicrotubule agent and/or an antimetabolite” (Nerviano Medical Sciences S.r.l., priority 2000, dated 2010).

Test system: disseminated L1210 murine leukemia
Conditions: for Tox (number of toxic deaths/number of mice) / ILS % (increase in life span: [(median survival time of treated mice/median survival time of controls) × 100] − 100): L1210 cells 10^5/mouse iv on day 0, PNU 166196 iv + 1.6, 0.78 mg/kg/day; for Tox (number of toxic deaths/number of mice): gemcitabine iv + 1, 15 mg/kg/day; for ILS % (increase in life span: [(median survival time of treated mice/median survival time of controls) × 100] − 100): gemcitabine iv + 1, 15 mg/kg/day (2 h after PNU 166196 administration); for ILS % values: text: gemcitabine 15 mg/kg day +1 after tumor injection, PNU 166196 0.7 mg/kg days +1,6, combination at the same doses and schedule

Row | SMILES | Tox (number of toxic deaths/number of mice) | ILS % (increase in life span: [(median survival time of treated mice/median survival time of controls) × 100] − 100) [%] | ILS % values [%] | toxicity (text: gemcitabine alone 15 mg/kg day +1, PNU 166196 alone 0.7 mg/kg days +1,6)
1 | Nc1ccn([C@@H]2O[C@H](CO)[C@@H](O)C2(F)F)c(=O)n1 [Gemcitabine, gemcitabine, reference compound] | 0/10 | 50 | 50 | –
2 | C=C(Br)C(=O)Nc1cc(C(=O)Nc2cc(C(=O)Nc3cc(C(=O)Nc4cc(C(=O)NCCNC(=N)N)n(C)c4)n(C)c3)n(C)c2)n(C)c1.Cl [PNU 166196, N-(5-{[(5-{[(5-{[(2-{[amino(imino)methyl]amino}ethyl)amino]carbonyl}-1-methyl-1H-pyrrol-3-yl)amino]carbonyl}-1-methyl-1H-pyrrol-3-yl)amino]carbonyl}-1-methyl-1H-pyrrol-3-yl)-4-[(2-bromoacryloyl)amino]-1-methyl-1H-pyrrole-2-carboxamide hydrochloride] | 0/10 | 58 | 58 | without toxicity
